Laboratory results: ChEMBL document CHEMBL4680140, “Minor chemical modifications of the aminosteroid derivative RM-581 lead to major impact on its anticancer activity, metabolic stability and aqueous solubility” (Eur J Med Chem, 2020)
Converted amounts (≈) assume the structure as drawn. The source made the active and inactive calls. The rule behind the calls is not given here.

Tests used:
[1] = Solubility of compound in PBS at pH 7.4 at 300 uM after 24 hrs by HPLC-UV analysis; format: physicochemical
[2] = test system: Caov-3 cell line; test: Antiproliferative activity against human Caov-3 cells assessed as reduction in cell viability at 1 to 5 uM after 72 hrs by MTS assay; format: functional, cell-based; details: dose 1-5 µM
[3] = test system: SK-OV-3; test: Antiproliferative activity against human SK-OV-3 cells assessed as reduction in cell viability at 1 to 5 uM after 72 hrs by MTS assay; format: functional, cell-based; details: dose 1-5 µM
[4] = test system: T47D; test: Antiproliferative activity against human T47D cells assessed as reduction in cell viability after 72 hrs by MTS assay; format: functional, cell-based
[5] = test system: OVCAR-3; test: Antiproliferative activity against human OVCAR-3 cells assessed as reduction in cell viability after 72 hrs by MTS assay; format: functional, cell-based; details: OVCAR-3, 72 h
[6] = test system: T47D; test: Antiproliferative activity against human T47D cells assessed as reduction in cell viability at 1 to 5 uM after 72 hrs by MTS assay; format: functional, cell-based; details: dose 1-5 µM
[7] = Stability in human liver s9 fraction assessed as parent compound remaining at 10 uM after 1 hr by LC-MS analysis; format: ADME, subcellular; details: read-out: Stabilty
[8] = test system: PANC-1; test: Antiproliferative activity against human PANC-1 cells assessed as reduction in cell viability after 72 hrs by MTS assay; format: functional, cell-based; details: PANC-1, 72 h
[9] = test system: LAPC4; test: Antiproliferative activity against human LAPC4 cells assessed as reduction in cell viability after 72 hrs by MTS assay; format: functional, cell-based; details: LAPC4, 72 h
[10] = test system: BXPC-3; test: Antiproliferative activity against human BXPC-3 cells assessed as reduction in cell viability at 1 to 5 uM after 72 hrs by MTS assay; format: functional, cell-based; details: dose 1-5 µM
[11] = test system: MCF7; test: Antiproliferative activity against human MCF7 cells assessed as reduction in cell viability after 72 hrs by MTS assay; format: functional, cell-based; details: MCF7, 72 h
[12] = test system: MCF7; test: Antiproliferative activity against human MCF7 cells assessed as reduction in cell viability at 1 to 5 uM after 72 hrs by MTS assay; format: functional, cell-based; details: dose 1-5 µM
[13] = test system: Hs 766; test: Antiproliferative activity against human Hs 766 cells assessed as reduction in cell viability at 1 to 5 uM after 72 hrs by MTS assay; format: functional, cell-based; details: dose 1-5 µM
[14] = test system: PC-3; test: Antiproliferative activity against human PC-3 cells assessed as reduction in cell viability after 72 hrs by MTS assay; format: functional, cell-based; details: PC-3, 72 h
[15] = test system: LNCaP; test: Antiproliferative activity against human LNCaP cells assessed as reduction in cell viability after 72 hrs by MTS assay; format: functional, cell-based
[16] = test system: PANC-1; test: Antiproliferative activity against human PANC-1 cells assessed as reduction in cell viability at 1 to 5 uM after 72 hrs by MTS assay; format: functional, cell-based; details: dose 1-5 µM
[17] = test system: OVCAR-3; test: Antiproliferative activity against human OVCAR-3 cells assessed as reduction in cell viability at 1 to 5 uM after 72 hrs by MTS assay; format: functional, cell-based; details: dose 1-5 µM
[18] = test system: LAPC4; test: Antiproliferative activity against human LAPC4 cells assessed as reduction in cell viability at 1 to 5 uM after 72 hrs by MTS assay; format: functional, cell-based; details: dose 1-5 µM
[19] = Solubility of compound in PBS at pH 7.4 at pH 7.4 HPLC analysis; format: physicochemical

| SMILES | solubility at 24 h, 300 µM [1] [µg/mL] | Activity [2] | Activity [3] | IC50 [4] [nM] | IC50 [5] [nM] | Activity [6] | remaining at 1 h, 10 µM [7] [%] | IC50 [8] [nM] | IC50 [9] [nM] | Activity [10] | IC50 [11] [nM] | Activity [12] | Activity [13] | IC50 [14] [nM] | IC50 [15] [nM] | Activity [16] | Activity [17] | Activity [18] | solubility [19] [µg/mL] |
| --- | --- | --- | --- | --- | --- | --- | --- | --- | --- | --- | --- | --- | --- | --- | --- | --- | --- | --- | --- |
| C#C[C@]1(O)CC[C@H]2[C@@H]3CC[C@H]4C[C@H](O)[C@@H](N5CCN(C(=O)[C@@H]6CCCN6C(=O)c6ccc7ccccc7n6)CC5)C[C@]4(C)[C@H]3CC[C@@]21C | 9 (≈ 13.8 µM) | – | – | – | – | – | – | – | – | – | – | – | – | – | – | – | – | – | – |
| C#C[C@]1(O)CC[C@H]2[C@@H]3CCc4cc(OC)c(N5CCN(C(=O)[C@@H]6CCCN6C(=O)c6ccc7ccccc7n6)CC5)cc4[C@H]3CC[C@@]21C | 2 (≈ 3.09 µM) | Active | Active | 500 | 5000 | Active | 35 | 3900 | 600 | Active | 2600 | Active | Active | 1600 | 1200 | Active | Active | Active | – |
| C#C[C@]1(O)CC[C@H]2[C@@H]3CCc4cc(OC)c(CN5CCN(C(=O)[C@@H]6CCCN6C(=O)c6ccc7ccccc7n6)CC5)cc4[C@H]3CC[C@@]21C | – | Active | Active | 400 | 5000 | Active | 76 | 2600 | 700 | Active | 2300 | Active | Active | 1700 | 1300 | Active | Active | Active | – |
| C#C[C@]1(O)CC[C@H]2[C@@H]3CCc4cc(C(C)=O)c(N5CCN(C(=O)[C@@H]6CCCN6C(=O)c6ccc7ccccc7n6)CC5)cc4[C@H]3CC[C@@]21C | – | inactive | inactive | – | – | inactive | 52 | – | – | inactive | – | inactive | inactive | – | – | inactive | inactive | inactive | – |
| C#C[C@]1(O)CC[C@H]2[C@@H]3CCc4cc(OC)c(C(=O)N5CCN(C(=O)[C@@H]6CCCN6C(=O)c6ccc7ccccc7n6)CC5)cc4[C@H]3CC[C@@]21C | – | Active | Active | 300 | 5200 | Active | 52 | 3500 | 500 | Active | 2200 | Active | Active | 1700 | 800 | Active | Active | Active | – |
| C#Cc1cc2c(cc1N1CCN(C(=O)[C@@H]3CCCN3C(=O)c3ccc4ccccc4n3)CC1)[C@H]1CC[C@@]3(C)[C@@H](CC[C@@]3(O)C#C)[C@@H]1CC2 | – | – | – | – | – | – | 52 | – | – | – | – | – | – | – | – | – | – | – | – |
| CC(=O)O[C@H]1C(=O)[C@@]2(C)[C@H]([C@H](OC(=O)c3ccccc3)[C@]3(O)C[C@H](OC(=O)[C@H](O)[C@@H](NC(=O)c4ccccc4)c4ccccc4)C(C)=C1C3(C)C)[C@]1(OC(C)=O)CO[C@@H]1C[C@@H]2O | – | – | – | – | – | Active | – | – | – | – | – | – | – | – | – | – | – | – | – |
| CCc1c2c(nc3ccc(OC(=O)N4CCC(N5CCCCC5)CC4)cc13)-c1cc3c(c(=O)n1C2)COC(=O)[C@]3(O)CC | – | – | – | – | – | Active | – | – | – | – | – | – | – | – | – | – | – | – | – |
| Nc1ccn([C@@H]2O[C@H](CO)[C@@H](O)C2(F)F)c(=O)n1 | – | – | – | – | – | Active | – | – | – | – | – | – | – | – | – | – | – | – | – |
| O=c1[nH]cc(F)c(=O)[nH]1 | – | – | – | – | – | Active | – | – | – | – | – | – | – | – | – | – | – | – | – |
| C#CC1(O)CC[C@H]2[C@@H]3CCc4cc(OC(=O)N(C)C)c(N5CCN(C(=O)[C@@H]6CCCN6C(=O)c6ccc7ccccc7n6)CC5)cc4[C@H]3CC[C@@]21C (single isomer, unassigned) | – | inactive | inactive | – | – | inactive | 52 | – | – | inactive | – | inactive | inactive | – | – | inactive | inactive | inactive | – |
| C#CC1(O)CC[C@H]2[C@@H]3CCc4cc(OC(C)=O)c(N5CCN(C(=O)[C@@H]6CCCN6C(=O)c6ccc7ccccc7n6)CC5)cc4[C@H]3CC[C@@]21C (single isomer, unassigned) | – | Active | Active | 400 | 3900 | Active | 76 | 2800 | 500 | Active | 1400 | Active | Active | 1400 | 800 | Active | Active | Active | – |
| C#CC1(O)CC[C@H]2[C@@H]3CCc4cc(OC(=O)N(CC)CC)c(N5CCN(C(=O)[C@@H]6CCCN6C(=O)c6ccc7ccccc7n6)CC5)cc4[C@H]3CC[C@@]21C (single isomer, unassigned) | – | inactive | inactive | – | – | inactive | 52 | – | – | inactive | – | inactive | inactive | – | – | inactive | inactive | inactive | – |
| C#CC1(O)CC[C@H]2[C@@H]3CCc4ccc(N5CCN(C(=O)[C@@H]6CCCN6C(=O)c6ccc7ccccc7n6)CC5)cc4[C@H]3CC[C@@]21C (single isomer, unassigned) | – | inactive | inactive | – | – | inactive | 35 | – | – | inactive | – | inactive | inactive | – | – | inactive | inactive | inactive | – |
| C#CC1(O)CC[C@H]2[C@@H]3CCc4cc(C(C)O)c(N5CCN(C(=O)[C@@H]6CCCN6C(=O)c6ccc7ccccc7n6)CC5)cc4[C@H]3CC[C@@]21C (single isomer, unassigned) | – | inactive | inactive | – | – | inactive | 35 | – | – | inactive | – | inactive | inactive | – | – | inactive | inactive | inactive | – |
| C#CC1(O)CC[C@H]2[C@@H]3CCc4cc(OS(N)(=O)=O)c(N5CCN(C(=O)[C@@H]6CCCN6C(=O)c6ccc7ccccc7n6)CC5)cc4[C@H]3CC[C@@]21C (single isomer, unassigned) | – | Active | Active | 200 | 3100 | Active | 35 | 3000 | 300 | Active | 1200 | Active | Active | 1600 | 900 | Active | Active | Active | – |
| C#CC1(O)CC[C@H]2[C@@H]3CCc4cc(O)c(N5CCN(C(=O)[C@@H]6CCCN6C(=O)c6ccc7ccccc7n6)CC5)cc4[C@H]3CC[C@@]21C (single isomer, unassigned) | – | Active | Active | 500 | 4400 | Active | 35 | 3100 | 400 | Active | 1400 | Active | Active | 1400 | 1100 | Active | Active | Active | – |
| C#CC1(O)CC[C@H]2[C@@H]3CCc4cc(OP(=O)(O)O)c(N5CCN(C(=O)[C@@H]6CCCN6C(=O)c6ccc7ccccc7n6)CC5)cc4[C@H]3CC[C@@]21C (single isomer, unassigned) | > 720 | Active | Active | 300 | 4600 | Active | 52 | 2600 | 300 | Active | 1500 | Active | Active | 1300 | 600 | Active | Active | Active | – |
| CCCSc1ccc2nc(NC(=O)OC)[nH]c2c1 [ALBENDAZOLE] | 0.52 (≈ 1.96 µM) | – | – | – | – | – | – | – | – | – | – | – | – | – | – | – | – | – | 0.74 (≈ 2.79 µM) |
